These results are taken from ChEMBL document CHEMBL4270518 (Eur J Med Chem, 2018).

The structures appear in SMILES notation. Activity calls are given as the source filed them. No cut-off for these calls is given here.

In experiment [1] the test system is MV4-11. Description: Induction of apoptosis in human MV4-11 cells at 30 nM after 24 to 48 hrs by Annexin V-PI staining based flow cytometry. Type of experiment: functional, cell-based.
Experiment [2] concerns the target T1, Protein deacetylase HDAC6 (Homo sapiens, UniProt Q9UBN7).
T1 sequence (Q9UBN7 whole entry): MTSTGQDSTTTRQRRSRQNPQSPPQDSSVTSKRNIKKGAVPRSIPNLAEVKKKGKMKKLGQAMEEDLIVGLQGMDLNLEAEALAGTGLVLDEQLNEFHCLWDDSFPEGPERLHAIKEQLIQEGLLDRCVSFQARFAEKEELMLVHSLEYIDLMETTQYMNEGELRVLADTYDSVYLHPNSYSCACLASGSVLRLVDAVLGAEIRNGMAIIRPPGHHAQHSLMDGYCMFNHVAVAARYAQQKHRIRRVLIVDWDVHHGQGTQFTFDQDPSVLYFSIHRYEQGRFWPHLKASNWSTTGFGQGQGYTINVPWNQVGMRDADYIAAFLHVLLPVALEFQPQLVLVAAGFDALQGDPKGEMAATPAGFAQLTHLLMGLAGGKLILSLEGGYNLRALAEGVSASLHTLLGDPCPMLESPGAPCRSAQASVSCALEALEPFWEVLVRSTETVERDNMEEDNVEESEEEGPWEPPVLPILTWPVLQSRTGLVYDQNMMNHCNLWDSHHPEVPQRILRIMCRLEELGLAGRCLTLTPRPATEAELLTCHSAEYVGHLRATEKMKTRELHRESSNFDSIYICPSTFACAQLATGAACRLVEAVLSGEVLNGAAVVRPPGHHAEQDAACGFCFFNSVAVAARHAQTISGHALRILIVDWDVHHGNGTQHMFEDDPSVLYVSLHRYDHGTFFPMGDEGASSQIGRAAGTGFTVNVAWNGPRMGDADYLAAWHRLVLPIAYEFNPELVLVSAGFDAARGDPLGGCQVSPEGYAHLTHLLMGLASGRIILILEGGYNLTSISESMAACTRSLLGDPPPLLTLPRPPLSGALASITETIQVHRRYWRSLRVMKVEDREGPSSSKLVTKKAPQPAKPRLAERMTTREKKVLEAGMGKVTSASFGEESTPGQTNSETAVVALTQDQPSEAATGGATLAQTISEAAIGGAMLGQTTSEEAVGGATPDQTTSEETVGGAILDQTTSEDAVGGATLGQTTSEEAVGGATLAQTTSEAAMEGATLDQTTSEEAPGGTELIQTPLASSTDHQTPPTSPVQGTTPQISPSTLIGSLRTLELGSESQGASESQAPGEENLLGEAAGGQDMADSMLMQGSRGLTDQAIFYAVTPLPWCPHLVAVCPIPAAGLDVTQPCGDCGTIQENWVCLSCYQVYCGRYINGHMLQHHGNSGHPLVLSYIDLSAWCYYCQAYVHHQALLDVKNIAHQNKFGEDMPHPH
As to the kind of experiment: Inhibition of human recombinant HDAC6 using RHKKAcAMC as substrate by fluorescence assay.

In experiment [3] the target is T2, Protein deacetylase HDAC6 (Homo sapiens) (UniProt Q9UBN7).
T2 sequence (whole entry): T1 sequence (Q9UBN7 whole entry)
As to the kind of experiment: Inhibition of HDAC6 in human MV4-11 cells assessed as accumulation of acetylated alpha-tubulin at 50 nM after 24 hrs by Western blot analysis. The format is cell-based.

In another experiment the target is Histone deacetylase 1 (Homo sapiens, UniProt Q13547). As to the kind of experiment: Inhibition of human recombinant HDAC1 using RHKKAcAMC as substrate by fluorescence assay.
Another experiment addresses Histone deacetylase 2 (Homo sapiens, UniProt Q92769). Description: Inhibition of human recombinant HDAC2 using RHKKAcAMC as substrate by fluorescence assay.
The next experiment has as its target Histone deacetylase 4 (Homo sapiens, UniProt P56524). As to the kind of experiment: Inhibition of human recombinant HDAC4 using fluorogenic trifluoroacetyl lysine as substrate by fluorescence assay.
The target of another experiment is T3, Histone deacetylase 8 (Homo sapiens, UniProt Q9BY41).
T3 sequence (Q9BY41 whole entry): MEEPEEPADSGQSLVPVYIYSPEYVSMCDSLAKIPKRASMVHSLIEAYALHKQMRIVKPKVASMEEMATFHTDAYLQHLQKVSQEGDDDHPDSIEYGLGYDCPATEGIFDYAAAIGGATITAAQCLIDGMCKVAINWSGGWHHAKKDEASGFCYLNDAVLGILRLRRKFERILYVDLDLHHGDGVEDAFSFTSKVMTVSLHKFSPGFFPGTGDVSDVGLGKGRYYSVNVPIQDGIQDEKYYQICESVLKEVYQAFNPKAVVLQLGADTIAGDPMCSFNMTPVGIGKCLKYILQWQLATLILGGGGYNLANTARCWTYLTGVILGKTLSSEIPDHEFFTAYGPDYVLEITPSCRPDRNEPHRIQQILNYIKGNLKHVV
Description: Inhibition of human recombinant HDAC8 using RHKAcKAcAMC as substrate by fluorescence assay.

The target of experiment [4] is T4, Polyamine deacetylase HDAC10 (Homo sapiens, UniProt Q969S8).
T4 sequence (Q969S8 whole entry): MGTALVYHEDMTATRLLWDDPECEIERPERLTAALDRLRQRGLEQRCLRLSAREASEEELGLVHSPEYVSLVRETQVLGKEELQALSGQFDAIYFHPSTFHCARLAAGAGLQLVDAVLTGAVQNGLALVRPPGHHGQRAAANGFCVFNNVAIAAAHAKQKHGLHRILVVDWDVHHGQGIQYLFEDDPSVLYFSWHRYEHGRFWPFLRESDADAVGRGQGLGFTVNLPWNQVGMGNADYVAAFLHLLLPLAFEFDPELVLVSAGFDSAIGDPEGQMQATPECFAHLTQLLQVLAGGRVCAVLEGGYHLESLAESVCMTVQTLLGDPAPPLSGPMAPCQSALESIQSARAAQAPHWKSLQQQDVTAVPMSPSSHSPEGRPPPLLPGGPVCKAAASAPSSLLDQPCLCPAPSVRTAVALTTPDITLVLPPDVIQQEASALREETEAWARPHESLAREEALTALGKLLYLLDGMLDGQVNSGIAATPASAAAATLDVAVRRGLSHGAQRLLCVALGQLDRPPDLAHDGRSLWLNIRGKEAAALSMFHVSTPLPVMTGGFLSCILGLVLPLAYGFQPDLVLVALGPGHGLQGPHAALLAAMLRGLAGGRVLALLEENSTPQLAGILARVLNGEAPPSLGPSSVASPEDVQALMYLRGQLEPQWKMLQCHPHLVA
Description: Inhibition of human recombinant HDAC10 using RHKKAcAMC as substrate by fluorescence assay.

The species entered for experiment [5] is Homo sapiens. As to the kind of experiment: Selectivity ratio of IC50 for human recombinant HDAC2 to IC50 for human recombinant HDAC6.
The species named for experiment [6] is Homo sapiens. Description: Selectivity ratio of IC50 for human recombinant HDAC8 to IC50 for human recombinant HDAC6.
For experiment [7], the species on record is Homo sapiens. As to the kind of experiment: Selectivity ratio of IC50 for human recombinant HDAC1 to IC50 for human recombinant HDAC6.
The species entered for experiment [8] is Homo sapiens. As to the kind of experiment: Selectivity ratio of IC50 for human recombinant HDAC4 to IC50 for human recombinant HDAC6.
Experiment [9] deals with MV4-11. Description: Inhibition of class 1 HDAC in human MV4-11 cells assessed as hyperacetylation of histone H3 at 200 nM after 24 hrs by Western blot analysis. Type of experiment: cell-based.
Experiment [10] deals with MV4-11. As to the kind of experiment: Inhibition of class 1 HDAC in human MV4-11 cells assessed as hyperacetylation of histone H3 at higher concentration after 24 hrs by Western blot analysis. The format is cell-based.
Experiment [11] deals with T2, Protein deacetylase HDAC6 (Homo sapiens). As to the kind of experiment: Inhibition of HDAC6 in human MV4-11 cells assessed as accumulation of acetylated alpha-tubulin at 200 nM after 10 to 1440 mins by Western blot analysis. The format is cell-based.
Experiment [12] shares this target. As to the kind of experiment: Inhibition of HDAC6 in human MV4-11 cells assessed as accumulation of acetylated alpha-tubulin at 200 nM by Western blot analysis. Type of experiment: cell-based. The conditions noted are these: TDE = time-dependent effect.
The test system of experiment [13] is MV4-11. Description: Induction of apoptosis in human MV4-11 cells up to 1 uM after 24 to 48 hrs by Annexin V-PI staining based flow cytometry. Type of experiment: functional, cell-based.
Experiment [14] concerns MV4-11. Description: Cell cycle arrest in human MV4-11 cells up to 1 uM after 24 to 48 hrs by propidium iodide staining based flow cytometry. The format is functional.
Experiment [15] has as its system MV4-11. As to the kind of experiment: Induction of apoptosis in human MV4-11 cells at 5 uM after 24 to 48 hrs by Annexin V-PI staining based flow cytometry. Type of experiment: functional, cell-based.

Chain of Histone deacetylase 2 (Q92769 whole entry): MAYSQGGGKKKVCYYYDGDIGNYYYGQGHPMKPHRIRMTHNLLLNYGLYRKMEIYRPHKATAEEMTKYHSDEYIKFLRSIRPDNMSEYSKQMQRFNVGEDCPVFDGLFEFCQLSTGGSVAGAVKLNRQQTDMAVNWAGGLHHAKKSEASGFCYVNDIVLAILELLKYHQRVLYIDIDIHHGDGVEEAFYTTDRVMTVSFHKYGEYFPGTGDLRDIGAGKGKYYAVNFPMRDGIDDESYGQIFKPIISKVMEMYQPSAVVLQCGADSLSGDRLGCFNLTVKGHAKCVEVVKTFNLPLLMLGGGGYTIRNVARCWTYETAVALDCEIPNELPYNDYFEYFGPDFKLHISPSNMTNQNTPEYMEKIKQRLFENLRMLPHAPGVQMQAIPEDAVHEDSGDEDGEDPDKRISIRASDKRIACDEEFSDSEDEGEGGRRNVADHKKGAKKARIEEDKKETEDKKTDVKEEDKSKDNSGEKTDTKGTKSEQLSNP
Chain of Histone deacetylase 4 (P56524 whole entry): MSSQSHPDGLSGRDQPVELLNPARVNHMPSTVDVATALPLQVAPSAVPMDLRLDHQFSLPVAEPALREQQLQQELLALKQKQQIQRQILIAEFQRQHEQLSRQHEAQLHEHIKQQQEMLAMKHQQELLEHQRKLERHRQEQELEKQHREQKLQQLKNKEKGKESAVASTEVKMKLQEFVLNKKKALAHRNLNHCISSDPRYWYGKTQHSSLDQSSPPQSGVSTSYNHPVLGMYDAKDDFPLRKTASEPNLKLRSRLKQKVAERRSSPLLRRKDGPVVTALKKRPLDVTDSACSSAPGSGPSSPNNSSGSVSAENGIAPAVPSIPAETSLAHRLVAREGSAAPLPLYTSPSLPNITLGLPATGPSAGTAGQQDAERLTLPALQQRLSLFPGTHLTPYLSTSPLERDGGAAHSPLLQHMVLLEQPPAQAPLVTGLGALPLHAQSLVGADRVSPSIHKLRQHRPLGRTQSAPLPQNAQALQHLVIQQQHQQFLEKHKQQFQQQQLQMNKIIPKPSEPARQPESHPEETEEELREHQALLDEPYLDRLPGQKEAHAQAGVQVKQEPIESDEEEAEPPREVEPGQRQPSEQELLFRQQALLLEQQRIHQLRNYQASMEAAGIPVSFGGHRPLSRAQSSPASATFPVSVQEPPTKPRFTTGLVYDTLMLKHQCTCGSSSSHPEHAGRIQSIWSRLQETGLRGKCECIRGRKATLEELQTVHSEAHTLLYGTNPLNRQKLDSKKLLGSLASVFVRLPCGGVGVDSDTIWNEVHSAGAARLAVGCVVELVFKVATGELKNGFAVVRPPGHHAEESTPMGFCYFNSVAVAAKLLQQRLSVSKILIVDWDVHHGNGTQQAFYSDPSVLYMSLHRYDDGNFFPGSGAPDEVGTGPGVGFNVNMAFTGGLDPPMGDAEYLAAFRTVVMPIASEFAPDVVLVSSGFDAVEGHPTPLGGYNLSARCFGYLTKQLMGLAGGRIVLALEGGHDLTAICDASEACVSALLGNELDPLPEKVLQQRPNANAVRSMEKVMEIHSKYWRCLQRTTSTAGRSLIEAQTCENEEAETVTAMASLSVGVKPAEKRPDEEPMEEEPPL
Chain of Histone deacetylase 1 (Q13547 whole entry): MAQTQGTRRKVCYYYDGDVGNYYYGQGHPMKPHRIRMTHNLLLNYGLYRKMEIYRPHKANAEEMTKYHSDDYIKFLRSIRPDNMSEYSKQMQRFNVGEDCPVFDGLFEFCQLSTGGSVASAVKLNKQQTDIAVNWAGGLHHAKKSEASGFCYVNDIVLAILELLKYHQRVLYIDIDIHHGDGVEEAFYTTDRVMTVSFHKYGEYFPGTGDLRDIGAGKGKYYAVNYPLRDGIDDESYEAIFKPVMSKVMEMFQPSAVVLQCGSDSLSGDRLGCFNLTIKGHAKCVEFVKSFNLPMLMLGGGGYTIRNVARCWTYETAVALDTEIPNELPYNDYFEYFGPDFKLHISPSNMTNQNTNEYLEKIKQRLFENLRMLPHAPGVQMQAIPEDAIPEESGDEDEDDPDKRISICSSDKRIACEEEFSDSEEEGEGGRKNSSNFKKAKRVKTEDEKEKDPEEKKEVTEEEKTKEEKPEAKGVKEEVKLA

In the case of `Cc1[nH]c2ccccc2c1CCNCc1ccc(/C=C/C(=O)NO)cc1`, in the experiment on MV4-11 [1], the result was Active.

Turning to `CCCN1CC(=O)N2[C@H](Cc3c(n(Cc4ccc(C(=O)NO)cc4)c4ccccc34)[C@H]2C)C1=O`, the IC50 in experiment [2] turned out to be 0.0185 µM.

As to `CCCN1CC(=O)N2Cc3c(c4ccccc4n3Cc3ccc(C(=O)NO)cc3)CC2C1=O` (centres undefined), the inhibition result (in [3]; in the experiment on MV4-11 [9]; with MV4-11 [10]; in experiment [11]) was “Active” in each case. Moreover, the IC50 is 0.00373 µM in experiment [2]; 8.45 µM at Histone deacetylase 1; 3.34 µM at Histone deacetylase 2; 20.5 µM on Histone deacetylase 4; 0.747 µM on Histone deacetylase 8; 39.5 µM in [4]. For the same molecule, the Ratio IC50 in the experiment listed under Homo sapiens [5] came to 900; in the experiment filed under Homo sapiens [6], 200; in the experiment listed under Homo sapiens [7], 2260; in the experiment listed under Homo sapiens [8], 5500. In experiment [12], the inhibition result was “Tde”. For the same molecule, the outcome with MV4-11 [13] and with MV4-11 [14] was inactive.

For the molecule `CCCN1CC(=O)N2[C@H](Cc3c(n(Cc4ccc(C(=O)NO)cc4)c4ccccc34)[C@@H]2C)C1=O`, the half-maximal inhibitory concentration (IC50) in experiment [2] worked out at 0.0018 µM; at Histone deacetylase 1, 1.05 µM; at Histone deacetylase 2 it was 1.87 µM; at Histone deacetylase 4, 1.44 µM; at Histone deacetylase 8, 0.168 µM; in [4], 1.51 µM. In addition, the outcome with MV4-11 [13] and in the experiment with MV4-11 [14] was inactive.

On to `CN1CC(=O)N2Cc3c(c4ccccc4n3Cc3ccc(C(=O)NO)cc3)CC2C1=O` (centres undefined), for which the IC50 in [2] stood at 0.0136 µM.

As for `CCCCN1CC(=O)N2Cc3c(c4ccccc4n3Cc3ccc(C(=O)NO)cc3)CC2C1=O` (centres undefined), the 50% inhibitory concentration (IC50) in experiment [2] amounted to 0.00326 µM. Besides, the inhibition result with MV4-11 [9] was “Active”.

For `CCCN1CC(=O)N2[C@H](C)c3c(c4ccccc4n3Cc3ccc(C(=O)NO)cc3)C[C@H]2C1=O`, in experiment [2], the IC50 worked out at 0.0607 µM.

On to `CCCN1CC(=O)N2Cc3c(c4cc(OC)ccc4n3Cc3ccc(C(=O)NO)cc3)CC2C1=O` (centres undefined), for which the IC50 in experiment [2] was 0.00166 µM.

As to `CCN1CC(=O)N2Cc3c(c4ccccc4n3Cc3ccc(C(=O)NO)cc3)CC2C1=O` (centres undefined), in [2], the IC50 is 0.00803 µM. For the same molecule, the inhibition entry in the experiment on MV4-11 [9] is “Active”.

Turning to `CC(C)CN1CC(=O)N2Cc3c(c4ccccc4n3Cc3ccc(C(=O)NO)cc3)CC2C1=O` (centres undefined), the IC50 in [2] turned out to be 0.00378 µM. In the experiment with MV4-11 [9], the inhibition entry was “Active”.

Consider `CCCN1CC(=O)N2[C@@H](Cc3c(n(Cc4ccc(C(=O)NO)cc4)c4ccccc34)[C@@H]2C)C1=O`, for which the IC50 in experiment [2] was determined as 0.0835 µM.

On to `CCCCN1C(=O)C2Cc3c(n(Cc4ccc(C(=O)NO)cc4)c4ccccc34)CN2C1=O` (centres undefined), for which the IC50 in experiment [2] was determined as 0.00932 µM.

For the molecule `Nc1ccccc1NC(=O)c1ccc(CNC(=O)OCc2cccnc2)cc1`, the inhibition result in the experiment on MV4-11 [9] is “Active”. The outcome with MV4-11 [15] was Active.

Take `CCN1C(=O)C2Cc3c(n(Cc4ccc(C(=O)NO)cc4)c4ccccc34)CN2C1=O` (centres undefined): in [2], the IC50 worked out at 0.00454 µM. Further, in the experiment on MV4-11 [9], the inhibition entry was “Active”.

For the molecule `CCCN1C(=O)C2Cc3c(n(Cc4ccc(C(=O)NO)cc4)c4ccccc34)CN2C1=O` (centres undefined), the IC50 in experiment [2] is 0.0101 µM. For the same molecule, the inhibition result in the experiment on MV4-11 [9] was “Active”.

Regarding `CCCN1CC(=O)N2Cc3c(c4cc(O)ccc4n3Cc3ccc(C(=O)NO)cc3)CC2C1=O` (centres undefined), the IC50 in [2] came to 0.00089 µM.

With `CCCN1CC(=O)N2Cc3c(c4cc(OCc5ccccc5)ccc4n3Cc3ccc(C(=O)NO)cc3)CC2C1=O` (centres undefined), the IC50 in [2] was found to be 0.00125 µM.

Take `CC(C)CCN1CC(=O)N2Cc3c(c4ccccc4n3Cc3ccc(C(=O)NO)cc3)CC2C1=O` (centres undefined): the IC50 in experiment [2] was 0.0241 µM. Moreover, in the experiment on MV4-11 [9], the inhibition result was “Active”.

For the molecule `CN1C(=O)C2Cc3c(n(Cc4ccc(C(=O)NO)cc4)c4ccccc34)CN2C1=O` (centres undefined), in [2], the IC50 is 0.00238 µM.
